Values of other authors in PMC3202968 (Journal of the American Chemical Society, 2010).

pKa: about 7.1
Structure (SMILES): Cc1cc(C)nc(N)c1 [2-amino-4,6-dimethylpyridine]
